Measured values taken from US8951529B2, “Methods of using small compounds to enhance myeloid derived suppressor cell function for treating autoimmune diseases” (Icahn School of Medicine at Mount Sinai, priority 2009, dated 2015).

Assays:
multiple sclerosis = details: GA alone, Johnson et al. (1995); cited from earlier work
[1] = system: TLR 2, 3, and 4 expression in MDSCs; details: microarray analysis
From the text: Five days later, cells were harvested and stained with anti-CD4-FITC+anti-CD25-APC+anti-Foxp3-PE or isotype controls followed by flow cytometry.

Gr-1+CD115+ MDSCs [2] = test: Prolongation of Treg cell inducing activity of pre-treated MDSCs; assay type: cell-based, mouse; details: 96 hours pre-treatment, then 5 days co-culture, FIG. 4B
Procedure: It was further investigated whether the delay of MDSC differentiation correlated with the prolongation of the Treg cell inducing activity mediated by MDSCs. Purified Gr-1+CD115+ MDSCs from tumor-bearing mice were left non-treated or treated with SP600125, GA, or a combination of both for 0, 48, and 96 hours followed by co-culture with CD4 HA TCR transgenic for an additional 5 days. […] The percentages of Treg cell subpopulations were determined by flow cytometry.
In the absence of treatment with GA or SP00125, the Treg cell inducing activity of MDSCs gradually waned over the period of 4-day culture (FIG. 4B).

Gr-1+CD115+ MDSCs [3] = test: Cytokine production by IFN-γ stimulated MDSCs (ELISA); assay type: cell-based, mouse; details: IFN-γ stimulation, 24 hours, FIG. 3A
Procedure: Sorted Gr-1+CD115+ MDSCs from tumor-bearing mice were stimulated with IFN-γ in the absence or presence of GA, SP600125, or both. Twenty-four hours after stimulation, culture supernatants were collected and the concentrations of IL-10, TGF-β, IL-6, and IL-23 were determined by ELISA (R&D Systems).
It was next determined whether GA, SP600125, or both exert an effect on cytokine production by MDSCs. Sorted Gr-1+CD115+ MDSCs from tumor-bearing mice were stimulated with IFN-γ in the absence or presence of GA, SP600125, or both. Twenty-four (24) hours after stimulation, culture supernatants were collected and the concentrations of IL-10, TGF-β, IL-6, and IL-23 were determined by ELISA (R&D Systems®). GA or SP600125 alone was capable of enhancing the secretion of IL-10 and TGF-β while decreasing IL-6 and IL-23 production by MDSCs in vitro (FIG. 3A).

IRF-3 = details: MDSCs stimulated with LPS for 2 hours, FIG. 9C
From the text: Actin was used as a loading control. Primary antibodies were anti-NFκB, anti-phospho-IRF3 (pIRF3), and anti-β-actin (Cell Signaling Technologies, Danvers, Mass.).

IBD = details: GA alone, clinical studies discontinued; cited from earlier work
CD115+ MDSCs = details: FIG. 9B
Procedure: IL-10 and IFN-γ levels in the supernatant were measured by ELISA.

Gr-1+CD115+ MDSCs [4] = test: MDSC differentiation assay (flow cytometry); assay type: cell-based, mouse; details: 24 hours culture, FIG. 4A
From the text: Gr-1+CD115+ MDSCs were sorted by MACS and cultured in the absence or presence of GA, SP600125, or both. Twenty-four hours later, viable cells were harvested and stained with anti-CD86, anti-CD80, anti-CD11c, anti-I-A, anti-F4/80, or isotype-matched control followed by flow cytometric analysis to assess MDSC differentiation.
To test whether differentiation of MDSCs can be inhibited or retarded by the treatment of GA, SP600125, or both, Gr-1+CD115+ MDSCs were sorted by MACS and cultured in the absence or presence of GA, SP600125, or both. Twenty-four (24) hours later, viable cells were harvested and stained with anti-CD86, anti-CD80, anti-CD11c, anti-I-A, anti-F4/80, or isotype-matched control followed by flow cytometric analysis. […] Treatment with GA or SP600125 impaired the spontaneous differentiation of MDSCs, as evidenced by the lower expressions of CD11c, MHC class II, co-stimulatory molecules, and F4/80.

[5] = system: MDSCs derived from TRIF KO mice; details: OVA peptide, CD4 OVA TCR splenocytes, 5 days, FIG. 9D
Procedure: TRIF is upstream of IRF-3. MDSCs derived from wild type or TRIF KO mice were cultured in the presence of OVA peptide and CD4 OVA TCR transgenic splenocytes for 5 days. Cells were stained with primary antibody specific for Foxp3, CD4 and CD25 and analyzed by flow cytometry.

normal CD115+ monocytes = test: Normal monocyte assay: Treg induction in co-culture with normal monocytes; assay type: cell-based, mouse; details: monocytes:CD4 OTII TCR splenocytes 1:4, five days, FIG. 2
From the text: CD115+ MDSCs and normal CD115+ monocytes were isolated from the bone marrows of tumor-bearing and naive Balb/c mice, respectively, and were co-cultured with CD4 OTII TCR transgenic splenocytes at a ratio of 1:4 in the absence or presence of GA, SP600125, or both.
To verify whether the enhancement of suppressive activities (suppression of T-cell proliferation and Treg cell induction) by GA and SP600125 is specific to MDSCs, the Treg cell inducing activity of normal CD115+ monocytes from naive mice was analyzed in the presence of GA and SP600125.

[6] = system: CD4+ HA-TCR transgenic splenocytes co-cultured with MDSCs; test: IL-17A production by HA-stimulated splenocytes co-cultured with MDSCs (ELISA); assay type: cell-based, mouse; details: splenocytes:MDSCs 3:1, HA peptide, five days, FIG. 3B
Procedure: Because IL-23 (p40/p19) is essential for the Th17 response, the effects of MDSCs, in the presence of GA, SP600125, or both, on IL-17A expression by CD4+ HA-TCR transgenic splenocytes stimulated with HA peptides was determined. Splenocytes from CD4+ HA-TCR transgenic mice were co-cultured with irradiated MDSCs at the ratio of 3:1 in the presence of HA peptide and SP600125, GA, or a combination of both. Five days later, the culture supernatants were collected for the determination of IL-17A concentration by ELISA.

L-glutamic acid polymer with L-alanine, L-lysine and L-tyrosine, acetate (salt) [GA]
efficacy for treating multiple sclerosis (multiple sclerosis): only partially effective
levels of TLR 2, 3, and 4 expression in MDSCs [1]: significant reduction
Treg cell inducing activity of treated MDSCs on day 4 (Gr-1+CD115+ MDSCs [2]): still maintained a significant Treg cell inducing activity
IL-6 production by MDSCs (Gr-1+CD115+ MDSCs [3]): decreasing
IL-23 production by MDSCs (Gr-1+CD115+ MDSCs [3]): decreasing
secretion of IL-10 by MDSCs (Gr-1+CD115+ MDSCs [3]): enhancing
secretion of TGF-β by MDSCs (Gr-1+CD115+ MDSCs [3]): enhancing
IRF-3 activation induced by LPS (IRF-3): inhibition
efficacy for treating IBD (IBD): failed to treat IBD
IFN-γ production induced by LPS in MDSCs (CD115+ MDSCs; 100 ng/mL LPS, 30 hours, ELISA): significantly reduced
IL-10 production by MDSCs (CD115+ MDSCs; with LPS): favors IL-10 production
spontaneous differentiation of MDSCs (CD11c, MHC class II, co-stimulatory molecules, F4/80) (Gr-1+CD115+ MDSCs [4]): impaired
MDSC-mediated Treg cell induction in the absence of TRIF [5]: cannot enhance
percentage of CD4+CD25+Foxp3+ Treg cells in the co-culture with normal monocytes (normal CD115+ monocytes): slightly increased
IL-17A production [6]: decreased
